Test results taken from ChEMBL document CHEMBL4406824, “Phenolic N-monosubstituted carbamates: Antitubercular and toxicity evaluation of multi-targeting compounds” (Eur J Med Chem, 2019).
Values after ≈ are worked out from the molar mass of the structure shown.

Columns and labels:
[1] = test system: Mycobacterium avium; assay: Antimycobacterial activity against Mycobacterium avium 330/88 after 21 days; format: functional; details: 330/88, 504 h
[2] = test system: Mycobacterium kansasii; assay: Antimycobacterial activity against Mycobacterium kansasii 6509/96 after 14 days; format: functional; details: 6509/96, 336 h
[3] = test system: HepG2; assay: Cytostatic activity against human HepG2 cells preincubated for overnight in serum free medium followed by compound wash out and further incubated for 72 hrs in presence of serum by MTT assay; format: ADME, cell-based
[4] = test system: Mycobacterium tuberculosis; format: functional; details: H37Rv 331/88, 504 h
[5] = test system: Mycobacterium kansasii; assay: Antimycobacterial activity against Mycobacterium kansasii 235/80 after 14 days; format: functional; details: 235/80, 336 h
[6] = test system: Mycobacterium avium; assay: Antimycobacterial activity against Mycobacterium avium 330/88 after 14 days; format: functional; details: 330/88, 336 h
[7] = in vitro; details: human, HepG2 cells
Description: Selectivity index, ratio of IC50 for human HepG2 cells to MIC for antimycobacterial activity against Mycobacterium tuberculosis H37Rv

[8] = test system: Mycobacterium tuberculosis; assay: Antimycobacterial activity against Mycobacterium tuberculosis H37Ra ITM-M006710 after 48 hr by resazurin dye based microdilution method; format: functional; details: H37Ra ITM-M006710, 48 h
[9] = test system: HepG2; assay: Cytotoxicity against human HepG2 cells assessed as reduction in cell viability after overnight incubation by MTT assay; format: cell-based
[10] = test system: Mycolicibacterium aurum; assay: Antimycobacterial activity against Mycobacterium aurum DSM 43999 after 72 hr by resazurin dye based microdilution method; format: functional; details: DSM 43999, 72 h
[11] = test system: Mycobacterium tuberculosis; format: functional, H37Rv 331/88; design: reference not given here
[12] = test system: Mycobacterium tuberculosis; format: functional; details: H37Rv 331/88, 336 h
[13] = test system: Mycobacterium kansasii; assay: Antimycobacterial activity against Mycobacterium kansasii 235/80 after 7 days; format: functional; details: 235/80, 168 h
[14] = test system: Mycobacterium kansasii; assay: Antimycobacterial activity against Mycobacterium kansasii 6509/96 after 7 days; format: functional; details: 6509/96, 168 h
[15] = test system: Mycobacterium kansasii; assay: Antimycobacterial activity against Mycobacterium kansasii 235/80 after 21 days; format: functional; details: 235/80, 504 h
[16] = test system: Mycolicibacterium smegmatis; assay: Antimycobacterial activity against Mycobacterium smegmatis DSM 43465 after 120 hr by resazurin dye based microdilution method; format: functional; details: DSM 43465, 120 h
[17] = test system: Mycobacterium kansasii; assay: Antimycobacterial activity against Mycobacterium kansasii 6509/96 after 21 days; format: functional; details: 6509/96, 504 h
[18] = test system: Mycobacterium tuberculosis H37Rv; assay: Inhibition of recombinant Mycobacterium tuberculosis H37Rv ICL1 expressed in Escherichia coli BL21 (DE3) cells at 10 uM using (+)-potassium Ds-threo-isocitrate as substrate by glyoxylate phenyl hydrazone formation assay relative to control
[19] = test system: Mycobacterium kansasii; assay: Potency index, ratio of p-aminosalicylic acid MIC to compound MIC for antimycobacterial activity against Mycobacterium kansasii 6509/96; format: functional
[20] = test system: Mycobacterium kansasii; assay: Potency index, ratio of p-aminosalicylic acid MIC to compound MIC for antimycobacterial activity against Mycobacterium kansasii 235/80; format: functional

Row | SMILES | MIC [1] | MIC [2] | IC50 [3] | MIC [4] | MIC [5] | MIC [6] | selectivity ratio [7] | MIC [8] | IC50 [9] | MIC [10] | Ratio [11] | MIC [12] | MIC [13] | MIC [14] | MIC [15] | MIC [16] | MIC [17] | inhibition [18] | Ratio [19] | Ratio [20]
1 | O=C(NCCc1ccccc1)Oc1ccc(Cl)cc1C(=O)Nc1ccc(Cl)cc1 | 8 µM (≈ 3.43 µg/mL) | 8 µM (≈ 3.43 µg/mL) | 5.1 µM | 16 µM (≈ 6.87 µg/mL) | 8 µM (≈ 3.43 µg/mL) | 8 µM (≈ 3.43 µg/mL) | 1.9 | 1.56 µg/mL | 15 µM | 1.56 µg/mL (≈ 3.63 µM) | >125 | 8 µM (≈ 3.43 µg/mL) | 8 µM (≈ 3.43 µg/mL) | 4 µM (≈ 1.72 µg/mL) | 16 µM (≈ 6.87 µg/mL) | 1.56 µg/mL (≈ 3.63 µM) | 8 µM (≈ 3.43 µg/mL) | 10% | >250 | >250
2 | O=C(NC1CCCCC1)Oc1ccc(Cl)cc1C(=O)Nc1ccc(Br)cc1 | 16 µM (≈ 7.23 µg/mL) | 8 µM (≈ 3.61 µg/mL) | 9.4 µM | 16 µM (≈ 7.23 µg/mL) | 8 µM (≈ 3.61 µg/mL) | 8 µM (≈ 3.61 µg/mL) | > 6.3 | 1.56 µg/mL | > 50 µM | 1.56 µg/mL (≈ 3.45 µM) | >125 | 8 µM (≈ 3.61 µg/mL) | 4 µM (≈ 1.81 µg/mL) | 4 µM (≈ 1.81 µg/mL) | 8 µM (≈ 3.61 µg/mL) | 1.56 µg/mL (≈ 3.45 µM) | 8 µM (≈ 3.61 µg/mL) | 16% | >250 | >250
3 | O=C(NCc1ccccc1)Oc1ccc(Cl)cc1C(=O)Nc1ccc(F)cc1 | 62.5 µM (≈ 24.9 µg/mL) | 32 µM (≈ 12.8 µg/mL) | 34.1 µM | 16 µM (≈ 6.38 µg/mL) | 32 µM (≈ 12.8 µg/mL) | 62.5 µM (≈ 24.9 µg/mL) | > 7.8 | 3.12 µg/mL | > 125 µM | 3.12 µg/mL (≈ 7.84 µM) | >125 | 8 µM (≈ 3.19 µg/mL) | 16 µM (≈ 6.38 µg/mL) | 16 µM (≈ 6.38 µg/mL) | 32 µM (≈ 12.8 µg/mL) | 3.12 µg/mL (≈ 7.84 µM) | 32 µM (≈ 12.8 µg/mL) | 15% | >250 | >250
4 | O=C(NC1CCCCC1)Oc1ccc(Cl)cc1C(=O)Nc1ccc(F)cc1 | 32 µM (≈ 12.5 µg/mL) | 16 µM (≈ 6.25 µg/mL) | 8.6 µM | 8 µM (≈ 3.13 µg/mL) | 32 µM (≈ 12.5 µg/mL) | 32 µM (≈ 12.5 µg/mL) | 2.7 to 5.3 | 3.12 µg/mL | 21.2 µM | 1.56 µg/mL (≈ 3.99 µM) | >125 | 4 µM (≈ 1.56 µg/mL) | 16 µM (≈ 6.25 µg/mL) | 16 µM (≈ 6.25 µg/mL) | 32 µM (≈ 12.5 µg/mL) | 3.91 µg/mL (≈ 10 µM) | 32 µM (≈ 12.5 µg/mL) | 18% | >250 | >250
5 | O=C(NCCc1ccccc1)Oc1ccc(Cl)cc1C(=O)Nc1ccc(Br)cc1 | 8 µM (≈ 3.79 µg/mL) | 8 µM (≈ 3.79 µg/mL) | 2.2 µM | 8 µM (≈ 3.79 µg/mL) | 8 µM (≈ 3.79 µg/mL) | 8 µM (≈ 3.79 µg/mL) | > 6.3 | 1.65 µM | > 50 µM | 1.56 µg/mL (≈ 3.29 µM) | >125 | 8 µM (≈ 3.79 µg/mL) | 4 µM (≈ 1.9 µg/mL) | 4 µM (≈ 1.9 µg/mL) | 8 µM (≈ 3.79 µg/mL) | 3.12 µg/mL (≈ 6.6 µM) | 8 µM (≈ 3.79 µg/mL) | 17% | >250 | >250
6 | O=C(NC12CC3CC(CC(C3)C1)C2)Oc1ccc(Cl)cc1C(=O)Nc1ccc(F)cc1 | 32 µM (≈ 14.2 µg/mL) | 8 µM (≈ 3.54 µg/mL) | > 125 µM | 4 µM (≈ 1.77 µg/mL) | 8 µM (≈ 3.54 µg/mL) | 32 µM (≈ 14.2 µg/mL) | 31.3 | 2.24 µM | > 125 µM | 1.98 µg/mL (≈ 4.47 µM) | >125 | 4 µM (≈ 1.77 µg/mL) | 8 µM (≈ 3.54 µg/mL) | 8 µM (≈ 3.54 µg/mL) | 16 µM (≈ 7.09 µg/mL) | 1.98 µg/mL (≈ 4.47 µM) | 16 µM (≈ 7.09 µg/mL) | 14% | >250 | >250
7 | O=C(NCc1ccccc1)Oc1ccc(Cl)cc1C(=O)Nc1ccc(Br)cc1 | 16 µM (≈ 7.36 µg/mL) | 8 µM (≈ 3.68 µg/mL) | 1.65 µM | 16 µM (≈ 7.36 µg/mL) | 8 µM (≈ 3.68 µg/mL) | 8 µM (≈ 3.68 µg/mL) | > 3.1 | 3.91 µg/mL | > 50 µM | 1.98 µg/mL (≈ 4.31 µM) | >125 | 16 µM (≈ 7.36 µg/mL) | 4 µM (≈ 1.84 µg/mL) | 4 µM (≈ 1.84 µg/mL) | 8 µM (≈ 3.68 µg/mL) | 1.98 µg/mL (≈ 4.31 µM) | 8 µM (≈ 3.68 µg/mL) | 17% | >250 | >250
8 | O=C(NC12CC3CC(CC(C3)C1)C2)Oc1ccc(Cl)cc1C(=O)Nc1ccc(Cl)cc1 | 16 µM (≈ 7.35 µg/mL) | 16 µM (≈ 7.35 µg/mL) | 8.15 µM | 16 µM (≈ 7.35 µg/mL) | 16 µM (≈ 7.35 µg/mL) | 16 µM (≈ 7.35 µg/mL) | 1.5 | 3.12 µg/mL | 24 µM | 3.91 µg/mL (≈ 8.51 µM) | >125 | 16 µM (≈ 7.35 µg/mL) | 8 µM (≈ 3.67 µg/mL) | 8 µM (≈ 3.67 µg/mL) | 16 µM (≈ 7.35 µg/mL) | 3.91 µg/mL (≈ 8.51 µM) | 16 µM (≈ 7.35 µg/mL) | 11% | >250 | >250
